# Results: US6576612B1, “Antitumor therapy comprising distamycin derivatives” (Pharmacia Italia S.p.A., priority 2000, dated 2003)
# Tested on: solid tumors
# Assay: Phase I pharmacological trial, iv single administration every three weeks
# Type: in vivo, patients
# Conditions: one patient suffering from gastrointestinal sarcoma, dose level 5.1 mg/m^2, iv infusion
# Experimental: A phase I pharmacological trial was carried out to investigate the iv administration of the title compound given as a single administration every three weeks to patients with solid tumors.
# The starting dose of 0.85 mg/m^2 was initially escalated in an accelerated design (100% dose increase, 1 patient/dose level) and then by a conventional dose escalation in 3-6 patient cohorts. 11 patients have been entered so far and 25 cycles have been evaluated for toxicity at dose levels of 0.85, 1.7, 3.4, 5.1 and 7.5 mg/m^2.
structure (smiles),measurement,value
"C=C(Br)C(=O)Nc1cc(C(=O)Nc2cc(C(=O)Nc3cc(C(=O)Nc4cc(C(=O)NCCNC(=N)N)n(C)c4)n(C)c3)n(C)c2)n(C)c1.Cl [PNU 166196, N-(5-{[(5-{[(5-{[(2-{[amino(imino)methyl]amino}ethyl)amino]carbonyl}-1-methyl-1H-pyrrol-3-yl)amino]carbonyl}-1-methyl-1H-pyrrol-3-yl)amino]carbonyl}-1-methyl-1H-pyrrol-3-yl)-4-[(2-bromoacryloyl)amino]-1-methyl-1H-pyrrole-2-carboxamide hydrochloride]",tumor response,partial response
